These results are taken from patent US7056509B2 (Board of Regents The University of Texas System, priority 1999, dated 2006).

One series concerns VEGFR2 (KDR/Fc). The series is described as follows: Coprecipitation assay, VEGF with VEGFR2/Fc in solution. Format: binding. To be noted: 40 ng VEGF, 200 ng receptor/Fc, F(ab′)2 of antibody. On the procedure: 200 ng of soluble forms of VEGFR1 (Flt-1/Fc) or VEGFR2 (KDR/Fc, R&D Systems, Minneapolis, Minn.) were added for a total volume of 50 μl and incubated for 2 hrs. The receptor/Fc constructs were precipitated using Protein A-sepharose beads and the resulting precipitate was washed 4 times with binding buffer.
Reducing sample buffer was added to the pellet and supernatant of each reaction and both were analyzed by 12% SDS-PAGE and transferred to PVDF membranes. […] The soluble receptor/Fc constructs were also detected by using peroxidase-conjugated goat anti-human Fc (Kirkegaard & Perry Laboratories, Inc.)
The receptor/Fc constructs were precipitated by incubation with Protein A sepharose beads. The precipitate was washed and resuspended in reducing sample buffer and separated by 12% SDS-PAGE and transferred to PVDF.

A short description of series [1]: Blood clearance of radioiodinated 2C3-GUS in mice. Format: in vivo, mouse. The note with it: after intravenous injection into mice, 125I-labelled. An excerpt:
2C3-GUS was radioiodinated with ^125I to a specific activity of 5×10^6 cpm/μg.

Series [2] relates to human NCI-H358 NSCLC tumors. The series is described as follows: Localization of 2C3-GUS in SCID mice bearing NCI-H358 tumors. Format: in vivo, mouse.
The target of a further series is T1, VEGF and VEGF:Flk-1 (Homo sapiens, UniProt P15692).
T1 sequence (P15692 27-191 isoform P15692-4): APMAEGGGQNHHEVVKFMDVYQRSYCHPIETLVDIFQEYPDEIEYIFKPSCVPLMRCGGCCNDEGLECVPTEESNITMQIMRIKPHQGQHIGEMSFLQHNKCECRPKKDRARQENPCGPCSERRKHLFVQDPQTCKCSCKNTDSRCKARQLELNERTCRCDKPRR
The series is described as follows: Indirect and capture ELISA for reactivity with VEGF alone or VEGF associated with sFlk-1. Format: binding. The note with it: VEGF alone or VEGF associated with sFlk-1 (VEGF:Flk-1). As for the experimental part:
The Flk-1/SEAP protein was produced and purified as described by Tessler et al. (1994). Basically, the extracellular domain of Flk-1 (sFlk-1) was produced in Spodoptera frugiperda (Sf9) cells and purified by immunoaffinity techniques utilizing a monoclonal anti-Flk-1 antibody (1A8). sFlk-1 was then biotinylated and bound on avidin-coated plates.
The reactivity was determined as described above for the initial screening.
A capture ELISA was also developed. In the capture ELISA, microtiter plates were-coated overnight at 4° C. with 100 ng of the indicated antibody. […] Streptavidin conjugated to peroxidase (Kirkegaard & Perry Laboratories, Inc.), diluted 1:2000, was used as a second layer and developed.
For orientation: In an ELISA, binding on a coated surface is turned into a signal by an enzyme label.

In another series the target is T2, VEGF (Homo sapiens, UniProt P15692).
T2 sequence (P15692 27-191 isoform P15692-4): T1 sequence (P15692 27-191 isoform P15692-4)
The series is described as follows: Competition ELISA (epitope groups, cross-blocking). The note with it: ELISA cross-blocking studies of 2C3 with A4.6.1. The format is binding. On the procedure: Competition ELISA studies were performed by first labeling the antibodies with peroxidase according to the manufacturer's instructions (EZ-Link Activated Peroxidase, Pierce). […] Approximately 0.5–2.0 μg/ml of peroxidase labeled test antibody was incubated on the plate in the presence of either buffer alone, an irrelevant IgG, or the other anti-VEGF competing antibodies in a 10–100 fold excess.
The assay was done in triplicate at least twice for each combination of labeled and competitor antibody. Two antibodies were considered to be in the same epitope group if they cross-blocked each other's binding by greater than 80%.

In a further series the test system is ABAE cells. The series can be described thus: Endothelial cell growth assay (VEGF-mediated growth, MTS). Format: cell-based, bovine.
The subject of series [3] is NCI-H358 NSCLC and HT29 colon adenocarcinoma xenografts. The series can be described thus: In vivo localization to human tumor xenografts in tumor-bearing mice. Also noted: species or system mouse. The note with it: i.v. 24 hours prior to sacrifice; 3E7 and GV39M bound tumor vascular endothelium, 2C3 tumor stroma. (In xenograft studies the graft and the host belong to different species.)
Protocol: Tumors were grown subcutaneously in immunocompromised mice (NCI-H358 NSCLC in nu/nu mice and HT29 colon adenocarcinoma in SCID mice) until the tumor volume was approximately 1 cm^3. 100 μg of unlabeled antibody for studies using SCID mice, or 100 μg of biotinylated antibody for studies using nude mice, was injected intravenously via a tail vein. Twenty four hours later, the mice were anesthetized, perfused with PBS, and tumor and organs including heart, lungs, liver, kidneys, intestines and spleen were collected and snap frozen in liquid nitrogen.
The tumor and organs from each mouse were sectioned on a cryostat and stained for antibody immunohistochemically as above, with the exception that sections from the nude mice were developed using peroxidase labeled streptavidin-biotin complex (Dako, Carpinteria, Calif.) and the sections from the SCID mice were developed using two peroxidase-conjugated secondary antibodies, a goat anti-mouse IgG+IgM followed by a rabbit anti-goat IgG.
100 μg of GV39M and 3E7 or isotype-matched control IgG were injected into SCID mice bearing HT29 human colonic adenocarcinomas. Twenty-four hours later, the mice were sacrificed, exsanguinated and the tumors and tissues were removed.

Another series has as its system VEGFR2 (KDR/Flk-1). The series is described as follows: ELISA of VEGF binding to VEGFR2-coated wells in presence of antibody. Also noted: species or system mouse. The note with it: 1000-fold molar excess of antibody over VEGF (1 nM).
In a further series the test system is VEGFR2 in PAE/KDR cells. The series can be described thus: VEGF-induced phosphorylation of VEGFR2 (immunoprecipitation and western blot). The format is cell-based, porcine. The note with it: antibody at 100 nM, 15 min. On the procedure: PAE/KDR, PAE/FLT, and bEND.3 cells were grown to 80–90% confluency in 100 mm tissue dishes in media containing 5% serum. The cells were then serum starved for 24 hours in media containing 0.1% serum. After pretreatment with […] in PBS for 30 min, the cells were incubated with 5 nM (200 ng/ml) VEGF165, 5 nM (100 ng/ml) bFGF (R&D Systems, Minneapolis, Minn.), or A673 tumor conditioned media in the presence or absence of control or test antibodies for additional 15 min.
The cells were then washed with ice-cold PBS containing 10 mM EDTA, 2 mM sodium fluoride, and 2 mM sodium orthovanadate and lysed in lysis buffer (50 mM Tris, 150 mM NaCl, 1% Nonidet P-40, 0.25% sodium deoxycholate, 0.1% CHAPS, 5 mM EDTA, 1.5 mM MgCl2, 2 mM sodium fluoride, 2 mM sodium orthovanadate, 10% glycerol and protease inhibitors (Complete Protease Inhibitor Cocktail tablets, Boehringer Mannheim)). The lysates were clarified by centrifugation and resulting supernatant used for immunoprecipitation.
The reactions using the chicken anti-FLT-1 antibody were subsequently incubated with a bridging goat anti-chicken antibody (Kirkegaard and Perry Laboratories, Inc.) for 1 h at 4° C. […]
(In general: A western blot detects proteins with antibodies after separation by electrophoresis.)

The next series has as its system NCI-H358 NSCLC. The series is described as follows: In vivo tumor growth inhibition, newly-implanted NCI-H358. Also noted: species or system mouse. As for the experimental part:
(§1) Nu/nu mice were injected subcutaneously with either 1×10^7 NCI-H358 NSCLC cells or 5×10^6 A673 rhabdomyosarcoma cells on day 0. […] The tumors were then measured twice per wk for a period of approximately six wk for the NCI-H358 bearing mice and four wk for the A673 bearing mice. Tumor volume was calculated according to the formula: volume=L×W×H, where L=length, W=width, H=height.

In series [4] the test system is A673 rhabdomyosarcoma. The series can be described thus: In vivo tumor growth inhibition, newly-implanted A673. Details: species or system mouse. On the procedure: as §1
Another series has as its system NCI-H358 NSCLC tumors. The series is described as follows: In vivo tumor therapy, established NCI-H358 xenografts. Details: species or system mouse. As for the experimental part: (§2) Male nu/nu mice bearing subcutaneous NCI-H358 tumors or HT1080 fibrosarcoma 200–400 mm^3 in size were injected i.p. with test or control antibodies. The NCI-H358 bearing mice were treated with 100 μg of antibodies per injection three times a week during the first week and twice a week during the second and third week. The mice were then switched to 50 μg per injection every five days. The HT1080 bearing mice were treated with 100 μg of the indicated antibody or saline every other day throughout the duration of the study. In both studies, mice were sacrificed when their tumors reached 2500 mm^3 in size or earlier if tumors began to ulcerate.
Doses were 50–100 μg every 3–5 days. […] In addition to measuring mean tumor volume (FIG. 4), photographs of the mice from each treatment group were also taken to show the differences in tumor size and appearance at the end of the study.

A further series deals with HT1080 fibrosarcoma. The series is described as follows: In vivo tumor therapy, established HT1080 xenografts. Also noted: species or system mouse. To be noted: 100 μg i.p. every other day. As for the experimental part: as §2
Series [5] deals with A673 rhabdomyosarcoma. The series is described as follows: Treatment of mice with established A673 tumors. Format: in vivo, mouse.
The subject of series [6] is LS174T colon adenocarcinoma. The series is described as follows: LS174T tumor model in mice. The format is in vivo, mouse. To be noted: mice with established tumors.
The conditions of series [7]: patients having progressive disease before treatment; cited from earlier work.
The mark [8] stands for this setting: 100 μg i.p. 2 times per wk from day 1, nu/nu mice.

Protocol for ABAE cells: Adult bovine aortic endothelial (ABAE) cells were plated into 96-well tissue culture plates at 1500 cells/well and grown in the presence of 0.5 nM human VEGF with the addition of the various sample and control antibodies. Control wells received media with or without VEGF.
After 4 days of incubation, the cells were quantified by an MTS (3-(4,5-dimethylthiazol-2-yl)-5-(3-carboxylmethoxyphenyl)-2-(4-sulfophenyl)-2H-tetrazolium, inner salt) conversion assay, where MTS conversion to a formazan is proportional to cell number and can be followed by absorbance at 490 nm (Cell Titer 96 AQueous One Solution Cell Proliferation Assay, Promega, Madison, Wis.). The assay was performed according to the manufacturer's instructions.
Cell growth was estimated by subtracting the MTS conversion in cultures to which VEGF was not added. Results were expressed as a percentage of the MTS conversion in control cultures to which only VEGF was added (Buttke et al., 1993).

For 2C3 F(ab′)2: F(ab′)2 of 2C3, the “Blocking of VEGF binding to VEGFR2/Fc in solution” value in the series with VEGFR2 (KDR/Fc) is reported as “blocked the binding of VEGF to VEGFR2/Fc”.

Turning to 2C3-GUS, in series [1], the “t½ α” value is recorded as “about 6 hours” and the “t½ β” value was “about 25 hours”. For the same compound, the “Localization after i.v. injection” value in [2] (immunohistochemistry on frozen sections of tumors) was “specifically localized to tumor vasculature and surrounding tumor stroma”. Also, the “Time of maximal localization after injection” value in [2] (mouse, in vivo) fell in the range of 24 to 48 h. In addition, the “Staining of normal tissues” value in series [2] (mouse, in vivo, iv) is “unstained”.

Turning to “2C3: monoclonal anti-VEGF antibody, IgG2a k, hybridoma ATCC PTA 1595; blocks VEGF binding to VEGFR2 but not VEGFR1”, the “Predominant Reactivity” value in the series with VEGF and VEGF:Flk-1 was “VEGF”. The “Epitope on VEGF” value with VEGF was “not cross-reactive”. Besides, the “Blocks VEGF-induced proliferation” value in the series on ABAE cells was “Yes”. Besides, the “Immunohistochemical Reactivity Tumor” value in [3] is listed as 3+. Besides, the “VEGF bound to VEGFR2-coated wells, % of amount bound in absence of antibody” value in the series with VEGFR2 (KDR/Flk-1) was about 19%. For the same compound, in the series with VEGFR2 in PAE/KDR cells, the “Blocking of VEGF-induced phosphorylation of VEGFR2” value is listed as “block VEGF-induced phosphorylation of VEGFR2”. In addition, the Tumor growth retardation result in the series with NCI-H358 NSCLC (10 μg dose twice per wk) was “less marked”. In addition, the Final tumor volume entry with NCI-H358 NSCLC (setting [8]) and with A673 rhabdomyosarcoma [4] (setting [8]) was “approximately 150 mm^3” throughout. Moreover, the “Effect on growth of A673 tumors” value in the series on A673 rhabdomyosarcoma [4] (10 or 1 μg twice per wk, compared to untreated mice) is “did slow the growth of A673 tumors”. In the series on NCI-H358 NSCLC tumors (100 μg i.p., prolonged treatment (FIG. 5A)), the “Mean tumor volume after approximately 14 wk of treatment” value came to 84 mm^3. Besides, in the series on NCI-H358 NSCLC tumors (50–100 μg i.p. every 3–5 days, approximately 10 weeks of treatment), the “Mean tumor volume at the end of the study, % of initial mean tumor volume” value is reported as 30%. Also, in the series with NCI-H358 NSCLC tumors (end of the study (day 116), FIG. 5A), the Mean tumor weight was determined as 0.054 g. Besides, the “Decrease in mean tumor volume” value in the series with NCI-H358 NSCLC tumors (start to approximately 14 wk of treatment (FIG. 5A)) is “approximately 80%”. Also, the Tumor growth result in the series on HT1080 fibrosarcoma is given as “arrested the growth of the tumors”. For the same compound, the “Growth of established tumors” value (with A673 rhabdomyosarcoma [5]; in series [6]) was “significantly slowed the growth” in each case.

`NC(=O)c1nnn(Cc2cc(Cl)c(C(=O)c3ccc(Cl)cc3)c(Cl)c2)c1N` [CAI, carboxyamidotriazole]: the “Cancer patients with disease stabilization” value in [7] was 49%.
